Experimental data taken from US20220380347A1, “INHIBITORS OF CYSTEINE PROTEASES AND METHODS OF USE THEREOF” (Pardes Biosciences, Inc., priority 2020, published 2022).
Like-named read-outs stand apart in the source and are kept apart here.

Tests used:
[1] = biological target: COVID-19 (nCoV-2019, SARS-CoV2) Mpro (Severe acute respiratory syndrome coronavirus 2, UniProt P0DTD1); test: COVID-19 (nCoV-2019, SARS-CoV2) Mpro enzymatic assay; format: biochemical; conditions: 25 nM Mpro, 25 μM substrate; read-out: COVID-19 Mpro IC50
HCov OC43 = test: HCoV OC43 cytopathic effect (CPE) assay, CellTiter Glo; format: cell-based, human coronavirus (HCov) OC43
229E Mpro = 229E Mpro (Human coronavirus 229E, UniProt P0C6X1); test: 229E Mpro enzymatic assay (standard methods, SARS-CoV2 Mpro assay given as exemplary); format: biochemical, human coronavirus (HCov) 229E
229E Mpro, sequence (P0C6X1 2966-3267): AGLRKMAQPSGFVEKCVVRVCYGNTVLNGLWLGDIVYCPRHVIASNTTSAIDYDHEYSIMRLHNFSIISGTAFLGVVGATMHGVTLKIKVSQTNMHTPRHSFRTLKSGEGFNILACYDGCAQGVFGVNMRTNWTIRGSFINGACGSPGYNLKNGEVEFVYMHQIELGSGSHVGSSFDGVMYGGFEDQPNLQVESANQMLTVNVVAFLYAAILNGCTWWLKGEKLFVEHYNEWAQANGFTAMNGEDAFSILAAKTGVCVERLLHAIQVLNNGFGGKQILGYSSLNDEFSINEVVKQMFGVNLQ
Method in brief: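 Run by standard methods, with the SARS-CoV-2 Mpro protocol given as the model: E. coli-expressed C-His6 protease at 25 nM and substrate at 25 μM (Km 13.5 μM). Buffer pH 7.3 with 5 mM TCEP and 0.1% BSA; % inhibition versus controls fitted to variable-slope log(inhibitor)-response for IC50.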

[2] = read-out: OC43 IC50 (uM) MEDIAN, median
[3] = Betacoronavirus 1, OC43, read-out: OC43 IC50 (uM) MEDIAN, median

Row | Compound | IC50 [1] [µM] | EC50 (229E Mpro; 229E Mpro EC50) [µM] | IC50 (HCov OC43; [3]) [µM] | also measured
1 | CN1CC(C(=O)N(c2ccc(S(F)(F)(F)(F)F)cc2)C(C(=O)NC2CCC(F)(F)CC2)c2cncc(F)c2)N(C#N)CC1=O (single isomer, unassigned) [Compound 1161 Isomer 1, 1-cyano-N-[2-[(4,4-difluorocyclohexyl)amino]-1-(5-fluoro-3-pyridyl)-2-oxo-ethyl]-4-methyl-5-oxo-N-[4-(pentafluoro-λ6-sulfanyl)phenyl]piperazine-2-carboxamide] | < 2 | < 2 |  | IC50 (HCov OC43; read-out: OC43 IC50 (uM) MEDIAN, median, listed as 1161 Isomer 1): < 2 µM
2 | CN1CC(C(=O)N(c2ccc(S(F)(F)(F)(F)F)cc2)C(C(=O)NC2CCC(F)(F)CC2)c2cncc(F)c2)N(C#N)CC1=O (single isomer, unassigned) [Compound 1161 Isomer 2, 1-cyano-N-[2-[(4,4-difluorocyclohexyl)amino]-1-(5-fluoro-3-pyridyl)-2-oxo-ethyl]-4-methyl-5-oxo-N-[4-(pentafluoro-λ6-sulfanyl)phenyl]piperazine-2-carboxamide] | 2 to 10 | 2 to 10 |  | IC50 (HCov OC43; read-out: OC43 IC50 (uM) MEDIAN, median, listed as 1161 Isomer 2): 2 to 10 µM
3 | CN1CC(C(=O)N(c2ccc(S(F)(F)(F)(F)F)cc2)C(C(=O)NC2CCC(F)(F)CC2)c2cncc(F)c2)N(C#N)CC1=O (single isomer, unassigned) [Compound 1161 Isomer 3, 1-cyano-N-[2-[(4,4-difluorocyclohexyl)amino]-1-(5-fluoro-3-pyridyl)-2-oxo-ethyl]-4-methyl-5-oxo-N-[4-(pentafluoro-λ6-sulfanyl)phenyl]piperazine-2-carboxamide] | 2 to 10 | 2 to 10 |  | IC50 (HCov OC43; read-out: OC43 IC50 (uM) MEDIAN, median, listed as 1161 Isomer 3): 10 to 30 µM
4 | CN1CC(C(=O)N(c2ccc(S(F)(F)(F)(F)F)cc2)C(C(=O)NC2CCC(F)(F)CC2)c2cncc(F)c2)N(C#N)CC1=O (single isomer, unassigned) [Compound 1161 Isomer 4, 1-cyano-N-[2-[(4,4-difluorocyclohexyl)amino]-1-(5-fluoro-3-pyridyl)-2-oxo-ethyl]-4-methyl-5-oxo-N-[4-(pentafluoro-λ6-sulfanyl)phenyl]piperazine-2-carboxamide] | 2 to 10 | 2 to 10 |  | IC50 (HCov OC43; read-out: OC43 IC50 (uM) MEDIAN, median, listed as 1161 Isomer 4): 2 to 10 µM
5 | CO[C@@H]1C[C@H](C(=O)N(c2ccc(S(F)(F)(F)(F)F)cc2)C(C(=O)N2CCCC3(COC3)C2)c2cccnc2)N(C#N)C1 (single isomer, unassigned) [Compound 1175] | 2 to 10 | < 2 |  | IC50 (HCov OC43; [2]): < 2 µM
6 | CO[C@@H]1C[C@H](C(=O)N(c2ccc(S(F)(F)(F)(F)F)cc2)C(C(=O)NC2C[C@@H](C)O[C@@H](C)C2)c2cccnc2)N(C#N)C1 (single isomer, unassigned) [Compound 1185] | < 2 | < 2 | < 2 | 
7 | CO[C@@H]1C[C@H](C(=O)N(c2ccc(S(F)(F)(F)(F)F)cc2)C(C(=O)NC2CCC(F)(F)CC2)c2cnccc2C)N(C#N)C1 (single isomer, unassigned) [Compound 1199] | < 2 | < 2 |  | IC50 (HCov OC43; [2]): < 2 µM
8 | CC(C(=O)NC1CCC(F)(F)CC1)(c1cccnc1)N(C(=O)[C@H]1[C@@H]2C[C@@H]2CN1C#N)c1ccc(S(F)(F)(F)(F)F)cc1 (single isomer, unassigned) [Compound 1251 Isomer 1] | 2 to 10 |  | 2 to 10 | EC50 (229E Mpro; read-out: 229E Mpro EC50): < 2 µM
9 | CC(C(=O)NC1CCC(F)(F)CC1)(c1cccnc1)N(C(=O)[C@H]1[C@@H]2C[C@@H]2CN1C#N)c1ccc(S(F)(F)(F)(F)F)cc1 (single isomer, unassigned) [Compound 1251 Isomer 2] | < 2 | < 2 |  | IC50 (HCov OC43; [2]): < 2 µM
10 | CO[C@@H]1C[C@H](C(=O)N(c2ccc(C3CC3)cc2F)C(C(=O)NC2CCC(F)(F)CC2)c2cnccc2C(F)(F)F)N(C#N)C1 (single isomer, unassigned) [Compound 1309 Isomer 1] | < 2 | < 2 | < 2 | 
11 | CO[C@@H]1C[C@H](C(=O)N(c2ccc(C3CC3)cc2F)C(C(=O)NC2CCC(F)(F)CC2)c2cnccc2C(F)(F)F)N(C#N)C1 (single isomer, unassigned) [Compound 1309 Isomer 2] | 2 to 10 |  |  | IC50 (HCov OC43; [2]): 2 to 10 µM; EC50 (229E Mpro; read-out: 229E Mpro EC50): < 2 µM
12 | N#CN1CCOC[C@@H]1C(=O)N(c1ccc(C2CC2)cc1F)C(C(=O)NC1CCC(F)(F)CC1)c1cnccc1C(F)(F)F (single isomer, unassigned) [Compound 1313 Isomer 1] | < 2 | < 2 | < 2 | 
13 | N#CN1CCOC[C@@H]1C(=O)N(c1ccc(C2CC2)cc1F)C(C(=O)NC1CCC(F)(F)CC1)c1cnccc1C(F)(F)F (single isomer, unassigned) [Compound 1313 Isomer 2] | 2 to 10 |  |  | IC50 (HCov OC43; [2]): 2 to 10 µM; EC50 (229E Mpro; read-out: 229E Mpro EC50): < 2 µM
14 | CC(C)(C#N)C(=O)N(c1ccc(S(F)(F)(F)(F)F)cc1)C(C(=O)NC1CCC(F)(F)CC1)c1cncc(F)c1 (single isomer, unassigned) [Compound 1316 Isomer 1, 2-cyano-N-[2-[(4,4-difluorocyclohexyl)amino]-1-(5-fluoro-3-pyridyl)-2-oxo-ethyl]-2-methyl-N-[4-(pentafluoro-λ6-sulfanyl)phenyl]propanamide] | > 30 | 10 to 30 | > 30 | 
15 | CC(C)(C#N)C(=O)N(c1ccc(S(F)(F)(F)(F)F)cc1)C(C(=O)NC1CCC(F)(F)CC1)c1cncc(F)c1 (single isomer, unassigned) [Compound 1316 Isomer 2, 2-Cyano-N-[2-[(4,4-difluorocyclohexyl)amino]-1-(5-fluoro-3-pyridyl)-2-oxo-ethyl]-2-methyl-N-[4-(pentafluoro-λ6-sulfanyl)phenyl]propanamide] | > 30 | > 30 |  | IC50 (HCov OC43; [2]): > 30 µM
16 | N#CN1C[C@H]2C[C@H]2[C@@H]1C(=O)N(c1ccc(S(F)(F)(F)(F)F)cc1)C(C(=O)NC1CCC(F)(F)CC1)c1cnccc1C(F)(F)F (single isomer, unassigned) [Compound 1318 Isomer 1] | < 2 | < 2 | < 2 | 
17 | N#CN1C[C@H]2C[C@H]2[C@@H]1C(=O)N(c1ccc(S(F)(F)(F)(F)F)cc1)C(C(=O)NC1CCC(F)(F)CC1)c1cnccc1C(F)(F)F (single isomer, unassigned) [Compound 1318 Isomer 2] | < 2 |  |  | IC50 (HCov OC43; [2]): < 2 µM; EC50 (229E Mpro; read-out: 229E Mpro EC50): < 2 µM
18 | CC(C)(C)c1ccc(N(C(=O)[C@H]2CCCN2C#N)C(C(=O)NCc2ccccn2)c2cccnc2)cc1 (stereo partly drawn) [Compound 443] | 2 to 10 | < 2 | 10 to 30 | 
19 | CN(C)CCCNC(=O)C(c1cccnc1)N(C(=O)[C@H]1CCCN1C#N)c1ccc(C(C)(C)C)cc1 (stereo partly drawn) [Compound 455] | 2 to 10 | < 2 | 10 to 30 | 
20 | CC(C)(C)c1ccc(NC2(C#N)CCCc3ccncc32)cc1 (stereo not drawn) [Compound 690a] | > 30 | > 30 | > 30 | 
21 | N#CC1(Nc2ccc(S(F)(F)(F)(F)F)cc2)CCCc2ccncc21 (stereo not drawn) [Compound 690b] | > 30 | > 30 | > 30 | 
22 | C[C@]1(O)CN[C@@H](C(=O)N(c2ccc(S(F)(F)(F)(F)F)cc2)C(C(=O)NC2CCC(F)(F)CC2)c2cnnc3ccccc23)C1 (stereo partly drawn) [Compound 711a] | < 2 | < 2 | < 2 | 
23 | CC(C)(C)c1ccc(N(C(=O)[C@H]2C[C@@H](O)CN2C#N)C(C(=O)NC2CCCCC2)c2cccnc2)c(Cl)c1 (stereo partly drawn) [Compound 775, (2R,4R)—N-(4-(tert-butyl)-2-chlorophenyl)-1-cyano-N-(2-(cyclohexylamino)-2-oxo-1-(pyridin-3-yl)ethyl)-4-hydroxypyrrolidine-2-carboxamide] | 10 to 30 | 2 to 10 | > 30 | 
24 | N#CN1CC(=O)NC[C@@H]1C(=O)N(c1ccc(S(F)(F)(F)(F)F)cc1)C(C(=O)NC1CCOCC1)c1cccnc1 (stereo partly drawn) [Compound 811, 1-cyano-5-oxo-N-[2-oxo-1-(3-pyridyl)-2-(tetrahydropyran-4-ylamino)ethyl]-N-[4-(pentafluoro-λ^6-sulfanyl)phenyl]piperazine-2-carboxamide] | < 2 | < 2 | < 2 | 
25 | CN1C[C@H](C(=O)N(c2ccc(S(F)(F)(F)(F)F)cc2)C(C(=O)NC2CCOCC2)c2cccnc2)N(C#N)CC1=O (stereo partly drawn) [Compound 813] | < 2 | < 2 | < 2 | 
26 | CC(C)(C)c1ccc(N(C(=O)C2NCC[C@H]2F)C(C(=O)NC2CCCCC2)c2cccnc2)cc1 (stereo partly drawn) [Compound 853] | 2 to 10 | 2 to 10 | 2 to 10 | 
27 | CC(C)(C)c1ccc(N(C(=O)[C@H]2CCCN2C#N)C(C(=O)N2CC(=O)C2)c2cccnc2)cc1 (stereo partly drawn) [Compound 946b, (2R)—N-(4-(tert-butyl)phenyl)-1-cyano-N-(2-oxo-2-(3-oxoazetidin-1-yl)-1-(pyridin-3-yl)ethyl)pyrrolidine-2-carboxamide] | 10 to 30 | 2 to 10 | 10 to 30 | 
28 | CC(C)(C)c1ccc(N(C(=O)[C@H]2CCCN2C#N)C(C(=O)N2CC(O)C2)c2cccnc2)cc1 (stereo partly drawn) [Compound 950, (2R)—N-(4-(tert-butyl)phenyl)-1-cyano-N-(2-(3-hydroxyazetidin-1-yl)-2-oxo-1-(pyridin-3-yl)ethyl)pyrrolidine-2-carboxamide] | 2 to 10 | 2 to 10 | 10 to 30 | 
